The source of these data is publication PMC4159345, “PF-4708671 Activates AMPK Independently of p70S6K1 Inhibition” (PLoS ONE, 2014).

The target in test [1] is T1, mitochondrial respiratory chain Complex I.
T1 construct: gene Mtnd1; multi-subunit complex in mitochondria isolated from MEF
Nature of the test: spectrophotometric rotenone-sensitive NADH-CoQ reductase activity in isolated MEF mitochondria. The class given is biochemical, Mus musculus.

Test [2] concerns T1, mitochondrial respiratory chain Complex I. Nature of the test: spectrophotometric NADH-CoQ reductase activity in isolated MEF mitochondria, single concentration of […]. It is filed as biochemical, Mus musculus.

For orientation: pIC50 means the negative decadic logarithm of the IC50, by convention in mol/L.

pIC50: −log10 of the molar value.

Turning to `CCc1cncnc1N1CCN(Cc2nc3cc(C(F)(F)F)ccc3[nH]2)CC1` [PF-4708671], the pIC50 in test [1] is 5.28. In the case of `CN(C)C(=N)N=C(N)N` [metformin], the “spectrophotometric NADH-CoQ reductase activity in isolated MEF mitochondria, sin” value in test [2] is on record as 5 mM.
